From the NIST ThermoML archive (doi:10.1021/je060139a)

Experiment: xn = mol fraction of the nth substance listed
Conditions: Wilhelmy plate method

COC(=O)c1ccccc1 [methyl benzoate] + CCO
surface tension liquid-gas [mN/m]
Conditions | 288.15 K | 298.18 K | 308.15 K | 318.15 K
x1 = 0.05 | 23.8 | 23 | 22.1 | 21.2
x1 = 0.1 | 24.63 | 23.78 | 22.87 | 21.9
x1 = 0.15 | 25.4 | 24.51 | 23.57 | 22.6
x1 = 0.2 | 26.18 | 25.25 | 24.28 | 23.3
x1 = 0.25 | 26.92 | 25.96 | 24.94 | 23.95
x1 = 0.3 | 27.67 | 26.66 | 25.59 | 24.6
x1 = 0.35 | 28.37 | 27.3 | 26.2 | 25.2
x1 = 0.4 | 29.04 | 27.9 | 26.8 | 25.8
x1 = 0.45 | 29.69 | 28.55 | 27.4 | 26.4
x1 = 0.5 | 30.33 | 29.16 | 28 | 27
x1 = 0.55 | 30.97 | 29.79 | 28.6 | 27.6
x1 = 0.6 | 31.62 | 30.41 | 29.2 | 28.2
x1 = 0.65 | 32.29 | 31.05 | 29.8 | 28.8
x1 = 0.7 | 33.01 | 31.75 | 30.5 | 29.46
x1 = 0.75 | 33.78 | 32.5 | 31.2 | 30.16
x1 = 0.8 | 34.6 | 33.3 | 32 | 30.92
x1 = 0.85 | 35.6 | 34.2 | 32.8 | 31.76
x1 = 0.9 | 36.6 | 35.2 | 33.8 | 32.7
x1 = 0.95 | 37.6 | 36.2 | 34.8 | 33.8
x1 = 1 | 38.6 | 37.2 | 35.8 | 34.8
